Patent US5177188A, “Methods and compositions for diagnosing chronic immune thrombocytopenic purpura” (The Scripps Research Institute, priority 1990, dated 1993)

Assays:
Parameters in all cases: species or system human
[1] = test system: antipeptide antibody binding to GPIIIa peptides; test: Inhibition of antipeptide antibody binding to GPIIIa peptides by platelets or purified GPIIb/IIIa; settings: plasma ITP-1, -2, -3 (1/10 dilution) preincubated with inhibitor
Procedure: (§1) To evaluate the ability of washed platelets, affinity-purified GPIIb/IIIa or synthetic peptides to block autoantibody binding, serial dilutions of platelets, GPIIb/IIIa or synthetic peptides (maximum addition: 10^10 platelets, 200 μg GPIIb/IIIa or 10 μg of peptide per 100 μl plasma, respectively) were incubated overnight at 4° C. with the patient's plasma. The preincubated plasma (100 μl 1/10 dilution) was added to replicate wells containing either GPIIb/IIIa from platelet lysate, affinity-purified GPIIb/IIIa or synthetic peptide, and antibody binding to each well was evaluated as describe above. Data were expressed as a percent of the binding of untreated plasma (% inhibition).
Three of the peptide-positive plasma samples (ITP-1, -2 and -3) were tested further; additional testing of ITP-4 and ITP-5 was not possible due to insufficient plasma.

[2] = test system: plasma autoantibodies (anti-GPIIIa) of chronic ITP patients; test: Solid-phase radioimmunoassay: plasma autoantibody binding to well-bound synthetic GPIIIa peptide
Procedure: Microtiter wells were activated with 100 μl of 0.1% glutaraldehyde in coating buffer (0.1M NaHCO3, pH 8.3) for 1 hr at room temperature (RT). Wells were washed twice with PBS and then incubated for 2 hr at PT with 1 μg of each synthetic peptide in 100 μl of coating buffer. After 6 washes with 0.05% Tween-20 (Sigma Chemical Co., St. Louis, MO) in PBS (wash buffer), each well was incubated with 200 μl of 2% BSA in wash buffer for 1 hr at RT. The wells were washed 6 times, followed by the addition to triplicate wells of 100 μl of plasma diluted 1/10 in wash buffer. After incubation for 1 hr and 6 washes, 100 μl of radiolabeled anti-human igG in wash buffer (100,000 cpm) was added to each well. After a final 1 hr incubation and 6 washes, well-bound radioactivity was determined. Data were expressed as a ratio: Mean cpm bound to GPIIIa peptide divided by mean cpm bound to control peptide (P10).
Nine synthetic peptides corresponding to different sequences within platelet GPIIIa (P1-P9, Table 1) were used as antigenic targets. A synthetic peptide of human HLA Class I heavy chain was used as a control (P10). Plasma from 13 patients with chronic ITP was studied. […] These 2 hydrophilic overlapping peptides are located at the carboxyterminal region of GPIIIa and together comprise the portion of the molecule considered to be the cytoplasmic domain. Plasma for patients ITP-1 and ITP-2 bound to peptide 9 with mean ratios of 32.4 (3 studies) and 5.8 (2 studies), respectively, while patient ITP-3 plasma bound to both peptides 8 and 9 (mean ratios of 13.3 and 3.3, respectively; 3 studies) and patients ITP-4 and ITP-5 bound to peptide 8 (mean ratios of 3.6, 2 studies and 9.4, 2 studies).

[3] = test system: autoantibody binding to washed platelets; test: Inhibition of autoantibody binding to washed platelets by peptide
Procedure: Washed platelets (3×10^7) were incubated with patient plasma (ITP-1-15 μl, ITP-2-60 μl, ITP-3-30 μl) in a total volume of 200 μl citrate buffer for 2 hrs at room temperature, followed by 4 washes. After resuspension in 300 μl of citrate buffer, platelets were lysed with 33 μl of 10% Triton X-100 in citrate buffer. Next, 100 μl of lysate was added to wells coated with murine anti-GPIIb. Bound antibody was detected with labeled anti-human IgG as described.
as §1
To evaluate the contribution of these antipeptide antibodies to the patients' total plasma anti-GPIIb/IIIa activity, the ITP plasmas were preincubated with serial dilutions of the appropriate peptide (8 or 9) and then tested in 4 different assays. In the first, the pretreated plasma was incubated with platelets. After washing and lysis, the GPIIb/IIIa complexes were captured on microtiter wells by monoclonal antibody. In the other 3 assays, pretreated plasma was added to microtiter wells coated directly with either peptide or affinity-purified GPIIb/IIIa (Aff-GPIIb/IIIa) or to microtiter wells with GPIIb/IIIa from plate let lysate immobilized by monoclonal antibody (Moab-GPIIb/IIIa). Antibody binding was detected in all assays with labeled antihuman IgG.

Substance	inhibition of antibody reactivity of plasma with the GPIIIa peptides [1]	mean binding ratio (cpm bound to GPIIIa peptide / cpm bound to control peptide P10) ([2]; plasma of patient ITP-1, 1/10 dilution, 3 studies)	mean binding ratio (cpm bound to GPIIIa peptide / cpm bound to control peptide P10) ([2]; plasma of patient ITP-2, 1/10 dilution, 2 studies)	mean binding ratio (cpm bound to GPIIIa peptide / cpm bound to control peptide P10) ([2]; plasma of patient ITP-3, 1/10 dilution, 3 studies)	inhibition of autoantibody binding to washed platelets ([3]; plasma ITP-1 preincubated with peptide, 3 studies (range))	inhibition of autoantibody binding to washed platelets ([3]; plasma ITP-2 preincubated with peptide, 2 studies) [%]	inhibition of antibody binding to both platelets and GPIIb/IIIa from platelet lysates ([3]; plasma from ITP-1 and ITP-2 preincubated with peptide, summary in discussion) [%]
affinity-purified GPIIb/IIIa: GPIIb/IIIa complex eluted from an anti-GPIIb monoclonal antibody (2A9) column loaded with platelet extract	completely inhibited						
ANNPLYKEATSTFTNITYRDT (ANNPLYDEATSTFTNITYRDT) [P9]		32.4	5.8	3.3	87.8-98.0	94.0	> 80
